Results reported in the NIST ThermoML archive (doi:10.1016/j.jct.2019.01.012).
± gives the expanded uncertainty stated by the source.

Experiment: molar enthalpy of vaporization or sublimation
Conditions: 298.15 K; Liquid; Static calorimetry

Structure (SMILES)	molar enthalpy
O=C1C=CCC1 [2-cyclopenten-1-one]	12.5 ± 0.359 kcal/mol
CC1=CC(=O)CC1 [3-methyl-2-cyclopenten-1-one]	12.5 ± 0.335 kcal/mol
